Data on one molecule can be found in patent publication US6313090A, “Methods for treating parasitic infection using thiopeptides” (The United States of America as represented by the …, priority 2000, dated 2001).

In general, IC50 refers to the point on the concentration scale where inhibition reaches its midpoint. Higher therefore signals weaker potency in that assay.

The test system of data set [1] is rpoB/C mRNA encoded by the 35-kb plastid-like organelle genome. The class given is cell-based, P. falciparum. As to the method: As of organelle and cyloplasmic transcript levels. RNA polymerase transcript levels were assessed by comparing the amounts of RNA synthesized at timepoints following drug treatment. Cultures of P. falciparum (3.2% parasitemia, 5% hematocrit) were treated with thiostrepton at 8 μM and rifampin (Sigma) at 80 μM; near the IC99 values (this study and ref. 22). Aliquots (5 ml) of treated and control cultures were removed and immediately processed for RNA with a guanidinium thiocyanate solution, according to the manufacturer's directions (RNAgents, Promega). All RNA samples were dissolved in 50 μl DEPC-treated water, DNase I treated as previously described (23) and an aliquot (1 μl) was removed for RT-PCR First strand synthesis of cDNA was completed with a random hexamer (Superscript Preamplification System, Life Technologies). One-tenth of the CDNA product was utilized for PCR of rpoB/C, MSA1, and rRNA. Primers corresponding to the 3' region of rpoB, 5'-GGGCTTTAGAAGCTTTTGG-3' (SEQ ID NO:1), and the 5' region of rpoC, 5'-[…]-3' (SEQ ID NO:2) were applied as described (2,3) for PCR of nascent rpoB/C transcripts. Reactions were cycled with the following parameters: 94° C./30 seconds, 42° C./30 seconds, 72° C./60 seconds, 35 cycles. Primers for amplification of nucleotide 64 to 614 of MSA1 with 5'-GTGTGATAATATTCATGG-3' (SEQ ID NO:3) and 5'-GGAGAGCATTTGGTG-3' (SEQ ID NO:4)(24) and the small subunit rRNA with oligonucleotides 841 and 844 (23) were used for amplification reactions following the parameters in the respective references except with 35 cycles. Samples were also analyzed after 25 cycles of amplification to ensure detection in the linear range of the amplification reaction, with similar results. Following electrophoresis of aliquots from the amplification reactions on 1% agarose:TBE gels, samples were transferred to nylon membranes (GeneScreen Plus, DuPont) and hybridized as described (25). The amplification products were probed with 5'-^32 P-labeled oligonucleotides. The rpoB/C products were probed with 5'-[…]-3' (SEQ ID NO:5) (nucleotide 2009-2030 of rpoB) and 5'-CGGAGAGGTATTAATACC-3' (SEQ ED NO:6) (nucleotide 108-125 of rpoC), in 5×SSC, 10 mM sodium phosphate, 0.05% sodium pyrophosphate, 1% sodium dodecyl sulfate, 5×Denhardt's solution, 100 μg/ml yeast tRNA, 42° C. and washed in the hybridization solution lacking Denhardt's and tRNA at 37° C., three times. The final wash was 1×SSC, 0.5% sodium dodecyl sulfate, 42° C. followed by autoradiography. The same results were obtained with either probe. The MSA1 amplification products were similarly probed with 5'-[…]-3' (SEQ ID NO:7) and the rRNA products with oligonucleotide 842 (23).
The target of inhibition by thiostrepton. […]

Data set [2] concerns P. falciparum total protein synthesis. Kind of data set: Assay of inhibition of protein synthesis, [3H]leucine incorporation. The class given is cell-based. As to the method:
Assay of Inhibition of Protein Synthesis. Assay for inhibition of protein synthesis was similar to above except the culture and drug dilutions were in RPMI-1640 without leucine (Select-Amine, Life Technologies) and the sera was extensively dialyzed as described (21). Also, the cultures were adjusted to 1% parasitemia prior to the experiment. Microtitre plates were set up with drug dilutions as described above except cultures were incubated with drug for only 4 hours. [3,4,5-^3 H]-Leucine (Moravek Biochemicals, 122 Ci/mmol, 0.5 mCi/ml, 100 μCi) was diluted to 4 ml in RPMI without leucine. The radiolabeled leucine (20 μl, […]) was added to each well and the plates were further incubated for four hours. The microtitre plates were processed as above to quantitate the incorporated radiolabel.
Assay of inhibition. The effect of thiostrepton on growth and protein synthesis of P. falciparum was compared to anisomycin, since the effect of both of these drugs is on protein synthesis. To assay the effect of thiostrepton and anisomycin on the growth of P. faciparum, inhibition of the uptake and incorporation of [^3 H]hypoxanthine was quantitated at serial dilutions of the drugs on an in vitro culture of P. falciparum. […] Inhibition of the incorporation of [^3 H]leucine was also tested at the same dilutions of the drugs. […]

The nature of data set [3]: Precipitation seen in culture medium of the growth assay. The class given is physicochemical. The following applies: highest concentrations (final 0.2mM) in culture. The procedure:
(§1) Assay of Growth inhibition. Thiostrepton (1525 u/mg; Calbiochem) and anisomycin (Sigma) were dissolved at 100 mM in DMSO (Pierce). P. falciparum (strain 3D7) (44) was maintained in culture with human erythrocytes (5% hematocrit) in RPMI-1640 (Life Technologies) supplemented with HEPES and sodium bicarbonate and human sera (10%) under standard conditions (18,19). The growth inhibition assay was conducted as described (20). Briefly, the parasitemia was adjusted to 0.1% parasitemia, 2.5% hematocrit and 200 μl aliquots placed in wells of a microtitre dish. Serial dilutions of drugs were made in RPMI. Thiostrepton was diluted to 10 mM in DMSO before the serial dilutions in RPMI. Aliquots (20 μl) were added in triplicate to the cultures in the microtitre plate, mixing well. At the highest concentrations (final 0.2mM), thiostrepton precipitates. After incubation for 48 hours under standard conditions, [2,8-^3 H]-hypoxanthine Moravek Biochemicals, 12.5 Ci/mmol) in RPMI (20 μl, 0.05 mCi/ml) was added to each well. After incubation for a further 24 hours, the cultures were lysed and incorporated radioactivity was measured with an automated counter.

In data set [4] the test system is P. falciparum (strain 3D7). As to the kind of experiment: Assay of growth inhibition, [3H]hypoxanthine incorporation. The class given is cell-based. The procedure: as §1
Assay of inhibition. The effect of thiostrepton on growth and protein synthesis of P. falciparum was compared to anisomycin, since the effect of both of these drugs is on protein synthesis. To assay the effect of thiostrepton and anisomycin on the growth of P. faciparum, inhibition of the uptake and incorporation of [^3 H]hypoxanthine was quantitated at serial dilutions of the drugs on an in vitro culture of P. falciparum. […] Inhibition of the incorporation of [^3 H]leucine was also tested at the same dilutions of the drugs. For anisomycin, total protein synthesis was inhibited 50% at the IC50 (0.511 μM) for inhibition of growth, with the concentration-response almost superimposable on that of protein synthesis. […] This would occur if organelle protein synthesis was the target of inhibition (29,30).

Turning to `C=C(NC(=O)C(=C)NC(=O)c1csc(C2=N[C@@H]3c4csc(n4)[C@H]4NC(=O)c5csc(n5)[C@H]([C@](C)(O)[C@@H](C)O)NC(=O)[C@H]5CSC(=N5)/C(=C/C)NC(=O)[C@H]([C@@H](C)O)NC(=O)c5csc(n5)[C@]3(CC2)NC(=O)[C@H](C)NC(=O)C(=C)NC(=O)[C@H](C)NC(=O)[C@H]([C@@H](C)CC)N[C@@H]2C=Cc3c([C@H](C)O)cc(nc3[C@H]2O)C(=O)O[C@@H]4C)n1)C(N)=O` [Thiostrepton, thiostrepton], in data set [1] (thiostrepton at 8 μM, rifampin at 80 μM), the “decay of mRNA corresponding to rpoB/C, time of drug treatment” value was at most 6 h. The “decline of the rpoB/C product with time” value in data set [1] (time course, 8 μM) is reported as “notable affect after only one hour of treatment”. In addition, the “effect on levels of nuclear-encoded MSA mRNA and total rRNA” value in data set [1] (within the duration of the experiment (8 hours), 8 μM) is given as “no effect”. The “inhibition of total protein synthesis” value in data set [2] (at the IC50 for growth) is recorded as “only a negligible amount of inhibition”. Besides, the “concentration required for almost complete inhibition of total protein synthesis” value in data set [2] (relative to the IC50 for growth) is “More than ten-fold higher concentrations than the IC50”. In data set [3], the precipitation result is “precipitates”. This molecule showed an IC50 in data set [4] (Plasmodium falciparum, 3D7, in vitro culture, [3H]hypoxanthine uptake and incorporation) of 1800 nM. Further, in data set [4] (concentration used, near the IC99 value, this study), the “IC99 (near)” value is about 8 µM.
